Measurements reported in patent US20060069132A1, “Azolecarboxamide herbicides” (priority 2004, published 2006).

Columns and labels:
[1] = tested on: morningglory; assay: Test C pre-/postemergence herbicide test; assay type: in vivo, Ipomoea coccinea; design: key to Plant response rating, Morningglory: 0 = no effect, 100 = complete control
In short: (§1)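 Pre/post spray; non-phytotoxic solvent + surfactant. Post-timing 1–4 leaves, 2–18 cm. Read-out: visual % control vs untreated, day 12–14, greenhouse.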

[2] = tested on: smallflower umbrella sedge; assay: Test C flooded paddy test; assay type: in vivo, Cyperus difformis; details: for Plant response rating, Sedge, Umbrella: visual rating after 12 to 14 days
[3] = tested on: cocklebur; assay: Test C pre-/postemergence herbicide test; assay type: in vivo, Xanthium strumarium; details: for Cocklebur plant response rating: 500 g ai/ha
In short: as §1

[4] = tested on: barnyardgrass; assay: Test A pre-/postemergence herbicide test; assay type: in vivo, Echinochloa crus-galli
In short: (§2)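 Greenhouse injury scoring (0–100, complete control = 100) at approximately ten days follows simultaneous pre- and postemergence application. Soil received a directed spray after seeding; seedlings of 2–10 cm at the one- to two-leaf stage were sprayed to runoff.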

[5] = tested on: velvetleaf; assay: Test A pre-/postemergence herbicide test; assay type: in vivo, Abutilon theophrasti
In short: as §2

[6] = tested on: ducksalad; assay: Test C flooded paddy test; assay type: in vivo, Heteranthera limosa; details: for Plant response rating, Ducksalad: visual rating after 12 to 14 days
[7] = tested on: lambsquarters; assay: Test C pre-/postemergence herbicide test; assay type: in vivo, Chenopodium album
In short: as §1

[8] = tested on: kochia; assay: Test C pre-/postemergence herbicide test; assay type: in vivo, Kochia scoparia
In short: as §1

[9] = tested on: common ragweed; assay: Test C pre-/postemergence herbicide test; assay type: in vivo, Ambrosia elatior; design: key to Plant response rating, Ragweed: 0 = no effect, 100 = complete control
In short: as §1

[10] = Postemergence, 500 g ai/ha, scale 0 to 100
[11] = Postemergence, 250 g ai/ha, scale 0 to 100, 0 no effect, 100 complete control
[12] = Preemergence, 500 g ai/ha, scale 0 to 100, 0 no effect, 100 complete control
[13] = postemergence, 125 g ai/ha, scale 0 to 100
[14] = postemergence, 62 g ai/ha, scale 0 to 100
[15] = 62 g ai/ha, scale 0 to 100 (0 no effect, 100 complete control)
[16] = 125 g ai/ha, scale of 0 to 100, 0 is no effect, 100 is complete control
[17] = 250 g ai/ha, scale 0 to 100 (0 no effect, 100 complete control)
[18] = 500 g ai/ha, scale 0 to 100 (0 no effect, 100 complete control)
[19] = 125 g ai/ha, scale 0-100, preemergence
[20] = 250 g ai/ha, scale 0 to 100 (0 no effect, 100 complete control), visual, 12 to 14 days, preemergence
[21] = Postemergence, 125 g ai/ha, scale 0 to 100, 0 no effect, 100 complete control
[22] = Postemergence, 250 g ai/ha, 0 to 100 scale, 0 no effect, 100 complete control
[23] = Postemergence, 1000 g ai/ha, 0 to 100 scale, 0 no effect, 100 complete control
[24] = Preemergence, 1000 g ai/ha, visual rating, 0 to 100 scale (0 no effect, 100 complete control)
[25] = preemergence, 250 g ai/ha, visual injury, 0 to 100 scale (0 no effect, 100 complete control)
[26] = 62 g ai/ha, preemergence, scale 0 to 100
[27] = 125 g ai/ha, scale 0 (no effect) to 100 (complete control), visual, 12 to 14 days, preemergence
[28] = 250 g ai/ha, scale 0-100, preemergence
[29] = 125 g ai/ha, scale 0 to 100 (0 no effect, 100 complete control)
[30] = 250 g ai/ha, scale of 0 to 100, 0 is no effect, 100 is complete control
[31] = Postemergence, 500 g ai/ha, 0 to 100 scale, 0 no effect, 100 complete control
[32] = Postemergence, 2000 g ai/ha, 0 to 100 scale, 0 no effect, 100 complete control
[33] = Preemergence, 2000 g ai/ha, visual rating, 0 to 100 scale (0 no effect, 100 complete control)
[34] = preemergence, 500 g ai/ha, visual injury, 0 to 100 scale (0 no effect, 100 complete control)
[35] = 500 g ai/ha, scale 0 to 100 (0 no effect, 100 complete control), visual, 12 to 14 days, preemergence
[36] = Preemergence, scale 0 to 100, 0 no effect, 100 complete control

CCNC(=O)c1cccc(NC(=O)c2cc(C(C)(C)C)nn2CC(F)(F)F)c1 [Compound 31]
Morningglory plant response rating [1, 10]: 70
Plant response rating, Morningglory [1, 11]: 60
Morningglory plant response rating [1, 12]: 40
Plant response rating, Morningglory [1, 13]: 50
Plant response rating, Morningglory [1, 14]: 50
Sedge, Umbrella plant response rating [2, 15]: 0
Sedge, Umbrella plant response rating [2, 16]: 35
Plant response rating, Sedge, Umbrella [2, 17]: 40
Plant response rating, Sedge, Umbrella [2, 18]: 55
Plant response rating (0 = no effect, 100 = complete control), Cocklebur ([3]; 62 g ai/ha, preemergence): 0
Plant response rating, Cocklebur [3, 19]: 20
Plant response rating, Cocklebur [3, 20]: 40
Cocklebur plant response rating ([3]; Postemergence, scale 0 to 100): 60
Plant response rating, Cocklebur [3, 21]: 40
Plant response rating, Cocklebur [3, 11]: 40
Plant response rating, Cocklebur [3, 14]: 40
Barnyardgrass plant response rating [4, 22]: 65
Plant response rating, Barnyardgrass [4, 23]: 75
Barnyardgrass plant response rating [4, 24]: 80
Barnyardgrass plant response rating [4, 25]: 40
Velvetleaf plant response rating [5, 22]: 20
Plant response rating, Velvetleaf [5, 23]: 30
Velvetleaf plant response rating [5, 24]: 35
Velvetleaf plant response rating [5, 25]: 10
Ducksalad plant response rating [6, 15]: 10
Ducksalad plant response rating [6, 16]: 20
Plant response rating, Ducksalad [6, 17]: 40
Plant response rating, Ducksalad [6, 18]: 60
Plant response rating (0 = no effect, 100 = complete control), Lambsquarters ([7]; 62 g ai/ha, preemergence): 90
Plant response rating, Lambsquarters [7, 19]: 100
Plant response rating, Lambsquarters [7, 20]: 100
Lambsquarters plant response rating [7, 10]: 90
Plant response rating, Lambsquarters [7, 11]: 90
Lambsquarters plant response rating [7, 12]: 100
Plant response rating, Lambsquarters [7, 13]: 80
Plant response rating, Lambsquarters [7, 14]: 80
Plant response rating (0 = no effect, 100 = complete control), Kochia ([8]; 62 g ai/ha, preemergence): 0
Plant response rating, Kochia [8, 19]: 80
Plant response rating, Kochia [8, 20]: 100
Kochia plant response rating [8, 10]: 70
Plant response rating, Kochia [8, 21]: 70
Plant response rating, Kochia [8, 11]: 70
Kochia plant response rating [8, 12]: 100
Plant response rating, Kochia [8, 14]: 70
Plant response rating (0 = no effect, 100 = complete control), Ragweed ([9]; 62 g ai/ha, preemergence): 0
Plant response rating, Ragweed [9, 20]: 60
Ragweed plant response rating [9, 10]: 70
Plant response rating, Ragweed [9, 11]: 40
Ragweed plant response rating [9, 12]: 80
Plant response rating, Ragweed [9, 13]: 40
Plant response rating, Ragweed [9, 14]: 30

CCNC(=O)c1ccc(F)c(NC(=O)c2cc(C3(C)CC3)nn2CC)c1 [Compound 300]
Plant response rating, Morningglory [1, 26]: 5
Plant response rating, Morningglory [1, 27]: 40
Plant response rating, Morningglory [1, 28]: 40
Sedge, Umbrella plant response rating ([2]; 62 g ai/ha, scale 0 to 100): 80
Sedge, Umbrella plant response rating [2, 29]: 80
Sedge, Umbrella plant response rating [2, 30]: 85
Plant response rating, Sedge, Umbrella [2, 18]: 90
Plant response rating, Cocklebur [3, 26]: 5
Plant response rating, Cocklebur [3, 27]: 5
Plant response rating, Cocklebur [3, 28]: 5
Barnyardgrass plant response rating [4, 31]: 75
Plant response rating, Barnyardgrass [4, 32]: 90
Barnyardgrass plant response rating [4, 33]: 100
Barnyardgrass plant response rating [4, 34]: 90
Velvetleaf plant response rating [5, 31]: 60
Plant response rating, Velvetleaf [5, 32]: 80
Velvetleaf plant response rating [5, 33]: 100
Velvetleaf plant response rating [5, 34]: 85
Ducksalad plant response rating ([6]; 62 g ai/ha, scale 0 to 100): 75
Ducksalad plant response rating [6, 29]: 80
Ducksalad plant response rating [6, 30]: 85
Plant response rating, Ducksalad [6, 18]: 90
Plant response rating, Lambsquarters [7, 26]: 100
Plant response rating, Lambsquarters [7, 27]: 100
Plant response rating, Lambsquarters [7, 28]: 100
Plant response rating, Kochia [8, 26]: 60
Plant response rating, Kochia [8, 27]: 100
Plant response rating, Kochia [8, 28]: 100
Plant response rating, Ragweed [9, 26]: 5
Plant response rating, Ragweed [9, 28]: 10

CCNC(=O)c1ccc(F)c(NC(=O)C2CC(C(C)(C)C)=NN2CC)c1 (racemic) [Compound 269]
Plant response rating, Morningglory [1, 26]: 0
Plant response rating, Morningglory [1, 27]: 5
Plant response rating, Morningglory [1, 28]: 10
Plant response rating, Morningglory [1, 35]: 40
Sedge, Umbrella plant response rating ([2]; 62 g ai/ha, scale 0 to 100): 45
Sedge, Umbrella plant response rating [2, 29]: 80
Sedge, Umbrella plant response rating [2, 30]: 80
Plant response rating, Sedge, Umbrella [2, 18]: 85
Plant response rating, Cocklebur [3, 26]: 0
Plant response rating, Cocklebur [3, 27]: 0
Plant response rating, Cocklebur [3, 28]: 5
Cocklebur plant response rating [3, 36]: 50
Barnyardgrass plant response rating [4, 31]: 70
Plant response rating, Barnyardgrass [4, 32]: 80
Barnyardgrass plant response rating [4, 33]: 100
Barnyardgrass plant response rating [4, 34]: 95
Velvetleaf plant response rating [5, 31]: 25
Plant response rating, Velvetleaf [5, 32]: 30
Velvetleaf plant response rating [5, 33]: 100
Velvetleaf plant response rating [5, 34]: 40
Ducksalad plant response rating ([6]; 62 g ai/ha, scale 0 to 100): 55
Ducksalad plant response rating [6, 29]: 80
Ducksalad plant response rating [6, 30]: 80
Plant response rating, Ducksalad [6, 18]: 85
Plant response rating, Lambsquarters [7, 26]: 95
Plant response rating, Lambsquarters [7, 27]: 100
Plant response rating, Lambsquarters [7, 28]: 100
Plant response rating, Lambsquarters [7, 35]: 100
Plant response rating, Kochia [8, 26]: 70
Plant response rating, Kochia [8, 27]: 100
Plant response rating, Kochia [8, 28]: 100
Plant response rating, Kochia [8, 35]: 100
Plant response rating, Ragweed [9, 26]: 5
Plant response rating, Ragweed [9, 28]: 90
Plant response rating, Ragweed [9, 35]: 90

CCNC(=O)c1cccc(NC(=O)c2cc(C(C)(C)C)nn2CC)n1 [Compound 144]
Plant response rating (0 = no effect, 100 = complete control), Morningglory ([1]; 62 g ai/ha, preemergence): 0
Plant response rating, Morningglory [1, 27]: 30
Morningglory plant response rating [1, 10]: 80
Plant response rating, Morningglory [1, 11]: 20
Morningglory plant response rating [1, 12]: 90
Plant response rating, Morningglory [1, 13]: 0
Plant response rating, Morningglory [1, 14]: 0
Sedge, Umbrella plant response rating [2, 15]: 80
Sedge, Umbrella plant response rating [2, 29]: 80
Sedge, Umbrella plant response rating [2, 30]: 80
Plant response rating, Sedge, Umbrella [2, 18]: 90
Plant response rating (0 = no effect, 100 = complete control), Cocklebur ([3]; 62 g ai/ha, preemergence): 0
Plant response rating, Cocklebur [3, 27]: 0
Plant response rating, Cocklebur [3, 20]: 0
Cocklebur plant response rating ([3]; Postemergence, scale 0 to 100): 70
Plant response rating, Cocklebur [3, 11]: 70
Cocklebur plant response rating [3, 36]: 80
Plant response rating, Cocklebur [3, 13]: 40
Plant response rating, Cocklebur [3, 14]: 10
Barnyardgrass plant response rating [4, 31]: 85
Plant response rating, Barnyardgrass [4, 32]: 100
Barnyardgrass plant response rating ([4]; Preemergence, 500 g ai/ha, visual rating, 0 to 100 scale (0 no effect, 100 complete control)): 100
Barnyardgrass plant response rating [4, 33]: 100
Velvetleaf plant response rating [5, 31]: 55
Plant response rating, Velvetleaf [5, 32]: 75
Velvetleaf plant response rating [5, 33]: 90
Velvetleaf plant response rating [5, 34]: 70
Ducksalad plant response rating [6, 15]: 20
Ducksalad plant response rating [6, 29]: 50
Ducksalad plant response rating [6, 30]: 70
Plant response rating, Ducksalad [6, 18]: 80
Plant response rating (0 = no effect, 100 = complete control), Lambsquarters ([7]; 62 g ai/ha, preemergence): 95
Plant response rating, Lambsquarters [7, 27]: 95
Lambsquarters plant response rating [7, 10]: 100
Plant response rating, Lambsquarters [7, 11]: 100
Lambsquarters plant response rating [7, 12]: 100
Plant response rating, Lambsquarters [7, 13]: 100
Plant response rating, Lambsquarters [7, 14]: 100
Plant response rating (0 = no effect, 100 = complete control), Kochia ([8]; 62 g ai/ha, preemergence): 75
Plant response rating, Kochia [8, 27]: 80
Kochia plant response rating [8, 10]: 85
Plant response rating, Kochia [8, 11]: 70
Kochia plant response rating [8, 12]: 100
Plant response rating, Kochia [8, 13]: 65
Plant response rating (0 = no effect, 100 = complete control), Ragweed ([9]; 62 g ai/ha, preemergence): 0
Plant response rating, Ragweed [9, 27]: 30
Ragweed plant response rating [9, 10]: 80
Plant response rating, Ragweed [9, 11]: 50
Ragweed plant response rating [9, 12]: 80
Plant response rating, Ragweed [9, 13]: 0
Plant response rating, Ragweed [9, 14]: 0
